The compounds below were run against T1, PMN LTB4 receptor (Homo sapiens, UniProt Q15722) (assay: LTB4 Human Neutrophil (PMN) Binding Assay). Settings: read-out: Ki, affinity for LTB4 (receptor).
T1 construct: endogenous in cells; host or cells: neutrophils (PMN) isolated from heparinized blood by ficoll gradient and dextran sedimentation
Text: LTB4 Human Neutrophil (PMN) Binding Assay
LTB4 for the PMN LTB4 receptor.

T1 sequence (Q15722 whole entry): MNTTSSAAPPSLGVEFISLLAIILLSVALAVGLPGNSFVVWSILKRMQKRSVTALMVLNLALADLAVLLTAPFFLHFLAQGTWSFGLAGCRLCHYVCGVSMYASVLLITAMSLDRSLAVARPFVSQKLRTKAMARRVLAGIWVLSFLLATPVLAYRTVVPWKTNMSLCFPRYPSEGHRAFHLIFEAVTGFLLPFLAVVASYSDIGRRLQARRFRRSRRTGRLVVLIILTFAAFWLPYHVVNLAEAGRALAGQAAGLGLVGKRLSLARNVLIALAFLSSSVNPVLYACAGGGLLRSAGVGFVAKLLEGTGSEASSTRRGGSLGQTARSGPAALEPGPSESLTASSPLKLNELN

Ki | Compound
0.052 µM | O=C(CCCCCOc1cc(-c2ccc3c(c2)OCO3)cc(-c2ccccc2)n1)NC(Cc1ccc(OCCCNC(=O)c2ccc(N/N=C/c3ccccc3S(=O)(=O)O)nc2)cc1)C(=O)O (stereo not drawn) [Reagent IV]
0.041 µM | O=C(CCCCCOc1cc(-c2ccc3c(c2)OCO3)cc(-c2ccccc2)n1)NC(Cc1ccc(O)cc1)C(=O)O (stereo not drawn) [Compound III]
0.008 µM | CCc1cc(-c2ccc(F)cc2)c(O)cc1OCCCCC(C)(C)CNC(=O)c1ccc(N/N=C/c2ccccc2)nc1 [IIa]

Reference: patent US6416733B1, “Radiopharmaceuticals for imaging infection and inflammation” (Bristol-Myers Squibb Pharma Company, priority 1996, dated 2002)
